# Results: ChEMBL document CHEMBL1148026, “Oxadiazole mannich bases: synthesis and antimycobacterial activity” (Bioorg Med Chem Lett, 2007)
# System: Mycobacterium tuberculosis
# Assay: Antimycobacterial activity against isoniazid-resistant Mycobacterium tuberculosis by agar dilution method using double dilution technique
# Format: functional
row,Structure (SMILES),MIC
1,O=S(=O)(c1ccc(NC(Cc2ccco2)n2nc(-c3ccccc3)oc2=S)cc1)c1ccc(NC(Cc2ccco2)n2nc(-c3ccccc3)oc2=S)cc1 (stereo not given),2.24 µM
2,O=[N+]([O-])c1ccc(-c2nn(C(Nc3ccc(S(=O)(=O)c4ccc(NC(c5ccccc5)n5nc(-c6ccc([N+](=O)[O-])cc6)oc5=S)cc4)cc3)c3ccccc3)c(=S)o2)cc1 (stereo not given),3.94 µM
3,O=S(=O)(c1ccc(NC(Cc2ccco2)n2nc(COc3ccc4ccccc4c3)oc2=S)cc1)c1ccc(NC(Cc2ccco2)n2nc(COc3ccc4ccccc4c3)oc2=S)cc1 (stereo not given),1.1 µM
4,O=S(=O)(c1ccc(NC(c2ccccc2)n2nc(COc3cccc4ccccc34)oc2=S)cc1)c1ccc(NC(c2ccccc2)n2nc(COc3cccc4ccccc34)oc2=S)cc1 (stereo not given),5.96 µM
5,O=S(=O)(c1ccc(NC(c2ccccc2)n2nc(-c3ccc(Nc4ccccc4)cc3)oc2=S)cc1)c1ccc(NC(c2ccccc2)n2nc(-c3ccc(Nc4ccccc4)cc3)oc2=S)cc1 (stereo not given),4.65 µM
6,O=S(=O)(c1ccc(NC(Cc2ccco2)n2nc(COc3cccc4ccccc34)oc2=S)cc1)c1ccc(NC(Cc2ccco2)n2nc(COc3cccc4ccccc34)oc2=S)cc1 (stereo not given),2.12 µM
7,O=S(=O)(c1ccc(NC(c2ccccc2)n2nc(Cc3ccccc3)oc2=S)cc1)c1ccc(NC(c2ccccc2)n2nc(Cc3ccccc3)oc2=S)cc1 (stereo not given),5.98 µM
8,O=S(=O)(c1ccc(NC(c2ccccc2)n2nc(COc3ccccc3)oc2=S)cc1)c1ccc(NC(c2ccccc2)n2nc(COc3ccccc3)oc2=S)cc1 (stereo not given),4.98 µM
9,O=[N+]([O-])c1ccc(-c2nn(C(Cc3ccco3)Nc3ccc(S(=O)(=O)c4ccc(NC(Cc5ccco5)n5nc(-c6ccc([N+](=O)[O-])cc6)oc5=S)cc4)cc3)c(=S)o2)cc1 (stereo not given),1.74 µM
10,O=S(=O)(c1ccc(NC(c2ccccc2)n2nc(COc3ccc4ccccc4c3)oc2=S)cc1)c1ccc(NC(c2ccccc2)n2nc(COc3ccc4ccccc4c3)oc2=S)cc1 (stereo not given),2.42 µM
11,O=S(=O)(c1ccc(NC(Cc2ccco2)n2nc(Cc3ccccc3)oc2=S)cc1)c1ccc(NC(Cc2ccco2)n2nc(Cc3ccccc3)oc2=S)cc1 (stereo not given),3.24 µM
12,O=S(=O)(c1ccc(NC(Cc2ccco2)n2nc(COc3ccccc3)oc2=S)cc1)c1ccc(NC(Cc2ccco2)n2nc(COc3ccccc3)oc2=S)cc1 (stereo not given),1.14 µM
13,O=S(=O)(c1ccc(NC(Cc2ccco2)n2nc(-c3ccc(Nc4ccccc4)cc3)oc2=S)cc1)c1ccc(NC(Cc2ccco2)n2nc(-c3ccc(Nc4ccccc4)cc3)oc2=S)cc1 (stereo not given),1.86 µM
14,O=S(=O)(c1ccc(NC(c2ccccc2)n2nc(-c3ccccc3)oc2=S)cc1)c1ccc(NC(c2ccccc2)n2nc(-c3ccccc3)oc2=S)cc1 (stereo not given),5.42 µM
15,NNC(=O)c1ccncc1 [ISONIAZID],11.4 µM
